Results reported in publication PMC6821791, “Phase I Trial of Pyragrel, a Novel Thromboxane Synthetase Inhibitor, to Evaluate the Safety, Tolerability, and Pharmacokinetics in Healthy Volunteers” (Frontiers in Pharmacology, 2019).

Columns and labels:
[1] = Acute toxicity study in mice; format: in vivo
[2] = Part III multiple-dose study, plasma pharmacokinetics; format: in vivo, human; conditions: for Accumulation on repeated dose, in words: repeated dose of pyragrel 180 mg for 6 days (once- or twice-daily dosing)
Experimental: (§1) Pyragrel administration regimens are as follows: In the single-escalating-dose study (Part I), a total of 52 subjects are enrolled to receive one of three treatments (pyragrel, ozagrel, or placebo, diluted in 500 Ml normal saline) as a 3-h i.v. infusion. Six dose levels of pyragrel (30, 60,120, 180, 240, 300 mg) were intravenously infused to healthy subjects. Of the 12 subjects each at the first three dose groups (30, 60, and 120 mg), 8 received pyragrel, 2 received ozagrel (80 mg), and 2 received placebo. Eight subjects were assigned as 4/2/2 for pyragrel, ozagrel, and placebo at the 180 mg level. Only four subjects were enrolled at the 240- and 300-mg group each; all received pyragrel. […] In the saline-volume-changed study (Part II), the safety and pharmacokinetics of pyragrel were assessed by decreasing the volume of dilution saline. Four subjects received a single 3 h infusion of pyragrel 240 mg diluted in 250 ml saline instead of the 500 ml used in Part I. Blood samples were collected at multiple time points before and after the initiation of the infusion in Part I and Part II; 15 blood samples were predetermined as follows: before drug administration (time 0), 0.5, 1, 2, 3 (4 samples collected during infusion), 3.25, 3.5, 4, 5, 7, 9, 11, 15, 24, and 48 h (10 samples collected post infusion) after the initiation of the infusion. In the multiple-dose study (Part III), 12 subjects received a single 3 h infusion of 180 mg pyragrel (diluted in 250 ml saline) on Day 1 and Day 6 and twice 3 h infusion of 180 mg pyragrel from Day 2 to 5; 14 blood samples were collected on Day 1 and Day 6 before drug administration (0 h), 0.5, 1, 2, 3, 3.25, 3.5, 4, 5, 7, 9, 11, 15, 24 h after the initiation of the infusion; moreover, 5 ml cubital vein blood was collected each time right before pyragrel infusion on Day 2 to Day 5. In the 3×3 crossover study (Part IV), 12 subjects were randomized to receive each of the three dosing groups (60, 120, or 240 mg) of pyragrel (diluted with 250 ml saline, 3 h infusion) per period, with a 7-day washout period between doses. Sixteen blood samples were collected as follows: before drug administration (0 h), 0.17, 0.35, 0.5, 1, 2, 3, 3.25, 3.5, 4, 5, 7, 9, 11, 15, and 24 h after the initiation of the infusion at each period. In the prolonged infusion study (Part V), four subjects received continuous 24 h infusion of pyragrel 360 mg (diluted in 600 ml saline); 19 blood samples were collected as follows: before drug administration (0 h), 0.25, 0.5, 1, 2, 4, 8, 12, 16, 20 (nine samples collected during administration), 24.25, 24.5, 25, 26, 28, 30, 32, 36, and 48 h after the initiation of the infusion (details shown in Figure 1 ). In all five cohorts, 5 ml of cubital vein blood was collected with a sodium heparin anticoagulant tube and centrifuged at 3000 r·min^-1. Each plasma sample was divided into two aliquots and stored at −20°C until further bioanalysis. […] Briefly, 10 µl of the extract drug from […] was injected onto a Zorbax EcLipse XDB C18 column (2.1 mm × 150 mm, 5 μm) (Agilent, USA) using isocratic elution with a mobile phase composed of methanol, water, and formic acid (65:35:0.1, v/v/v). Determination of the analytes was achieved by tandem-mass spectrometry with positive electrospray ionization.
(§2) Pharmacokinetic parameters were calculated using the noncompartmental model (NCA module), WinNonlin 6.1 (Pharsight Corporation, Mountain View, CA, USA). Statistical analysis was performed with SPSS 18. The actual dosing and sampling times were utilized in the analysis. Pharmacokinetic parameters were summarized by dose regimens using descriptive statistics, including n, mean, and the coefficient of variation (CV). For Tmax, only n, min, median, and max were reported.

[3] = Part II saline-volume-changed study, plasma pharmacokinetics; format: in vivo, human; conditions: single-dose infusion of 240 mg pyragrel diluted in 250 ml saline, n=4
Experimental: as §1, §2

[4] = Part IV 3×3 crossover study, plasma pharmacokinetics; format: in vivo, human
Experimental: as §1, §2
In Part IV, a multivariate ANOVA model containing subjects, treatments (60, 120, or 240 mg), periods, and gender was used to analyze log-transformed Cmax and AUC. Tmax was analyzed using various related Friedman nonparametric tests.

focal cerebral ischemia = conditions: cited from earlier work
[5] = Part III, metabolite in plasma, multiple dose i.v. infusion of 180 mg pyragrel
[6] = metabolite in plasma, single dose of 180 mg pyragrel
[7] = metabolite in plasma after pyragrel 60 mg, n=12
[8] = metabolite in plasma after pyragrel 120 mg, n=12
[9] = metabolite in plasma after pyragrel 240 mg, n=12
[10] = Part III, multiple dose, 3-h infusions of pyragrel 180 mg for 6 days, plasma, n=12
[11] = Part III, single dose, 3-h infusion of pyragrel 180 mg, plasma, n=12
[12] = pyragrel 60 mg, 3 h infusion, plasma, n=12, mean ± SD
[13] = pyragrel 120 mg, 3 h infusion, plasma, n=12, mean ± SD
[14] = pyragrel 240 mg, 3 h infusion, plasma, n=12, mean ± SD

COc1cc(CCC(=O)O)ccc1OCc1nc(C)c(C)nc1C [BBS]
LD50 [1]: > 929.7 mg/kg | AUCINF [2, 5]: 7027.46 ± 3017.92 µg·h/L | AUClast [2, 5]: 6797.36 ± 2919.19 µg·h/L | Cl [2, 5]: 35.50 ± 18.33 L/h | Cmax [2, 5]: 1356.91 ± 564.13 µg/L | Tmax [2, 5]: 3.19 ± 0.11 h | Vz [2, 5]: 152.37 ± 94.36 L | t1/2 [2, 5]: 6.07 ± 2.11 h | R ([2]; Part III, metabolite, multiple vs single dose of 180 mg pyragrel, footnote d not given): 1.27 ± 0.13 | AA ([2]; Part III, metabolite, multiple vs single dose of 180 mg pyragrel, footnote e not given): 1.13 ± 0.24 | AUCINF [2, 6]: 6145.79 ± 2339.86 µg·h/L | AUClast [2, 6]: 6022.22 ± 2291.72 µg·h/L | Cl [2, 6]: 36.52 ± 23.08 L/h | Cmax [2, 6]: 1324.23 ± 447.99 µg/L | Tmax [2, 6]: 3.25 ± 0.15 h | Vz [2, 6]: 285.61 ± 221.29 L | t1/2 [2, 6]: 5.31 ± 1.42 h | Accumulation on repeated dose, in words [2]: no accumulation | AUCINF [3]: 10315.00 ± 5472.87 ng·h/mL | AUClast [3]: 10085.90 ± 5357.26 ng·h/mL | Cl [3]: 36.06 ± 33.86 L/h | Cmax [3]: 2066.22 ± 977.65 ng/mL | MRTINF [3]: 4.13 ± 0.70 h | MRTlast [3]: 3.50 ± 0.74 h | Tmax [3]: 3.19 ± 0.24 h | Vz [3]: 372.66 ± 424.67 L | t1/2 [3]: 6.31 ± 1.38 h | λz [3]: 0.11 ± 0.03 h⁻¹ | AUCINF [4, 7]: 1882.93 ± 534.37 µg·h/L | AUClast [4, 7]: 1821.9 ± 496.75 µg·h/L | Cl [4, 7]: 34.77 ± 11.33 L/h | Cmax [4, 7]: 373.16 ± 101.22 ng/mL | Tmax [4, 7]: 3.29 ± 0.18 h | Vz [4, 7]: 261.4 ± 115.98 L | t1/2 [4, 7]: 5.12 ± 1.17 h | AUCINF [4, 8]: 4036.27 ± 1186.62 µg·h/L | AUClast [4, 8]: 3969.83 ± 1184.3 µg·h/L | Cl [4, 8]: 32.54 ± 10.86 L/h | Cmax [4, 8]: 837.84 ± 228.5 ng/mL | Tmax [4, 8]: 3.27 ± 0.17 h | Vz [4, 8]: 250.94 ± 149.96 L | t1/2 [4, 8]: 5.08 ± 1.38 h | AUCINF [4, 9]: 9572.13 ± 3748.80 µg·h/L | AUClast [4, 9]: 9440.71 ± 3717.86 µg·h/L | Cl [4, 9]: 30.04 ± 16.36 L/h | Cmax [4, 9]: 2041.56 ± 684.12 ng/mL | Tmax [4, 9]: 3.25 ± 0.18 h | Vz [4, 9]: 212.93 ± 126.27 L

COc1cc(C=CC(=O)[O-])ccc1OCc1nc(C)c(C)nc1C.[Na+] [Pyragrel, sodium pyragrel]
LD50 [1]: 929.7 mg/kg | AUCINF [2, 10]: 6,939.5 ± 2,072.8 h*µg·L^-1 | AUCTAU [2, 10]: 6,854.5 ± 2,062.7 h*µg·L^-1 | AUClast [2, 10]: 6,909.9 ± 2066.8 h*µg·L^-1 | Cl [2, 10]: 28.49 ± 8.49 L/h | Cmax [2, 10]: 2,447.8 ± 825.3 µg·L^-1 | Tmax [2, 10]: 2.42 ± 0.67 h | t1/2 [2, 10]: 6.51 ± 2.73 h | Cmin ([2]; Part III, pyragrel 180 mg, printed in column Single dose, footnote a: steady-state trough concentration, n=12): 4.22 ± 2.26^a µg·L^-1 | Cavg ([2]; Part III, pyragrel 180 mg, printed in column Single dose, footnote b: steady-state peak concentration, n=12): 571.2 ± 171.9^b µg·L^-1 | AUCINF [2, 11]: 6,680.3 ± 1,668.0 h*µg·L^-1 | AUClast [2, 11]: 6,663.3 ± 1665.7 h*µg·L^-1 | Cl [2, 11]: 28.85 ± 8.75 L/h | Tmax [2, 11]: 2.83 ± 0.39 h | Vz [2, 11]: 226.0 ± 141.7 L | t1/2 [2, 11]: 5.12 ± 1.91 h | Cmax ([2]; Part III, single dose, 3-h infusion of pyragrel 180 mg, plasma, n=12, footnote c: steady-state average concentration): 2,311.9 ± 514.4^c µg·L^-1 | Accumulation on repeated dose, in words [2]: no accumulation | AUCINF [3]: 9638.78 ± 1487.08 ng·h/mL | AUClast [3]: 9600.11 ± 1446.10 ng·h/mL | Cl [3]: 25.38 ± 4.18 L/h | Cmax [3]: 3360.73 ± 622.63 ng/mL | MRTINF [3]: 1.02 ± 0.33 h | MRTlast [3]: 0.90 ± 0.16 h | Tmax [3]: 3.00 ± 0.00 h | Vz [3]: 221.12 ± 75.68 L | t1/2 [3]: 6.19 ± 2.63 h | λz [3]: 0.13 ± 0.04 h⁻¹ | Effect against focal cerebral ischemic injury and focal cerebral ischemia-reperfusion (focal cerebral ischemia; rat models of focal cerebral ischemia, ref Wang and Wu, 2014): markedly protective effects | Nerve function (focal cerebral ischemia; rats with focal cerebral ischemia-reperfusion injury, continuous infusion of pyragrel for 7 days): significant improvements | AUCINF [4, 12]: 2,003.8 ± 318.7 h*µg·L^-1 | AUClast [4, 12]: 1,990.8 ± 317.9 h*µg·L^-1 | Cl [4, 12]: 30.65 ± 4.91 L/h | Cmax [4, 12]: 641.2 ± 107.8 ng/mL | Tmax [4, 12]: 2.75 ± 0.45 h | Vz [4, 12]: 184.5 ± 80.37 L | t1/2 [4, 12]: 4.28 ± 1.84 h | AUCINF [4, 13]: 4,325.2 ± 541.5 h*µg·L^-1 | AUClast [4, 13]: 4,317.4 ± 541.1 h*µg·L^-1 | Cl [4, 13]: 28.18 ± 3.83 L/h | Cmax [4, 13]: 1505.6 ± 178.7 ng/mL | Tmax [4, 13]: 2.58 ± 0.51 h | Vz [4, 13]: 197.6 ± 77.76 L | t1/2 [4, 13]: 4.82 ± 1.63 h | AUCINF [4, 14]: 9,292.8 ± 1,468.0 h*µg·L^-1 | AUClast [4, 14]: 9,279.1 ± 1,466.3 h*µg·L^-1 | Cl [4, 14]: 26.45 ± 4.34 L/h | Cmax [4, 14]: 3165.7 ± 426.4 ng/mL | Tmax [4, 14]: 2.92 ± 0.29 h | Vz [4, 14]: 194.3 ± 72.28 L | t1/2 [4, 14]: 5.06 ± 1.58 h
